# Laboratory results: US20240132521A1, “COMPOUNDS AND METHODS FOR MODULATING HER2” (Iambic Therapeutics, Inc., priority 2022, published 2024)
# Counter-ions that a name gives are not always drawn. Like-named read-outs stand apart in the source and are kept apart here.
# What was measured:
# Assay type in all cases: cell-based
# [1] = target: BaF3_EGFRWT cells (Homo sapiens, UniProt P00533); assay: Cell growth inhibition assay (CellTiterGlo), BaF3_EGFRWT
# [2] = target: BaF3_HER2YVMA cells (Homo sapiens, UniProt P04626, DUP772-775, cells depend on it); assay: Cell growth inhibition assay (CellTiterGlo), BaF3_HER2YVMA
# Chain of BaF3_HER2YVMA cells (P04626 with tags, fused parts or gaps DUP772-775): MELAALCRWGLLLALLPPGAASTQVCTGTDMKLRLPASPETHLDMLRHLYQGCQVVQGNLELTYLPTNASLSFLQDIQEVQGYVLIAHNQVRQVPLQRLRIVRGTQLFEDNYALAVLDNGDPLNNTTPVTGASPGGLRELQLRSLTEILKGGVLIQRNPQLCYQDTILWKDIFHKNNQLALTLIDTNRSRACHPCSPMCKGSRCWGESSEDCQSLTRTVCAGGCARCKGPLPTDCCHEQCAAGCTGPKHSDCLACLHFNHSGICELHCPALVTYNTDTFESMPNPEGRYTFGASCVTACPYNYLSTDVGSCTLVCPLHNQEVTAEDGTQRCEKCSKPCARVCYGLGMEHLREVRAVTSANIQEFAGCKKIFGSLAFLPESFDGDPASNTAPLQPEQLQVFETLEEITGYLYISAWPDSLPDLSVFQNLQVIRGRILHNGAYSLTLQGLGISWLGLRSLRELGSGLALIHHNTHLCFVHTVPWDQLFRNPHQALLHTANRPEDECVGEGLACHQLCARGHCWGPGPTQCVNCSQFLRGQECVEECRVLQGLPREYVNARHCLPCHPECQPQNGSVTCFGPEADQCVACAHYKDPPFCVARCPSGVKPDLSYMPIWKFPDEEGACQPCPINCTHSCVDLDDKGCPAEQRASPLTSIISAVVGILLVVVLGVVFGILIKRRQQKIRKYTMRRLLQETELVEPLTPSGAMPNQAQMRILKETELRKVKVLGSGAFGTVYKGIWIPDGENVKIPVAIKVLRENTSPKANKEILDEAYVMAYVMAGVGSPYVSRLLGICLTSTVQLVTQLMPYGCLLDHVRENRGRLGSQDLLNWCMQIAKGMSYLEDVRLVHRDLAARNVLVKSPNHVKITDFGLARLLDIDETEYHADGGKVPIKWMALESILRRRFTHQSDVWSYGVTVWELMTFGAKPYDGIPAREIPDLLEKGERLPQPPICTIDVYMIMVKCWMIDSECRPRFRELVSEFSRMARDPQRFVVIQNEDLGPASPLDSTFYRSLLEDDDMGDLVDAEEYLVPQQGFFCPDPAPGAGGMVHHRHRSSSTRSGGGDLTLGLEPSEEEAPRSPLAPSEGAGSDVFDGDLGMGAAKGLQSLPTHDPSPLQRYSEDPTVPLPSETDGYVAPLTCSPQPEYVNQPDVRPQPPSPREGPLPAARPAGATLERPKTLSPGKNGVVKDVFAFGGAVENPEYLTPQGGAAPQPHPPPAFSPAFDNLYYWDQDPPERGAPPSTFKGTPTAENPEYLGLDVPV
# [3] = target: BaF3_HER2WT cells (Homo sapiens, UniProt P04626); assay: Cell growth inhibition assay (CellTiterGlo), BaF3_HER2WT
# Chain of BaF3_HER2WT cells (P04626 whole entry, change not shown): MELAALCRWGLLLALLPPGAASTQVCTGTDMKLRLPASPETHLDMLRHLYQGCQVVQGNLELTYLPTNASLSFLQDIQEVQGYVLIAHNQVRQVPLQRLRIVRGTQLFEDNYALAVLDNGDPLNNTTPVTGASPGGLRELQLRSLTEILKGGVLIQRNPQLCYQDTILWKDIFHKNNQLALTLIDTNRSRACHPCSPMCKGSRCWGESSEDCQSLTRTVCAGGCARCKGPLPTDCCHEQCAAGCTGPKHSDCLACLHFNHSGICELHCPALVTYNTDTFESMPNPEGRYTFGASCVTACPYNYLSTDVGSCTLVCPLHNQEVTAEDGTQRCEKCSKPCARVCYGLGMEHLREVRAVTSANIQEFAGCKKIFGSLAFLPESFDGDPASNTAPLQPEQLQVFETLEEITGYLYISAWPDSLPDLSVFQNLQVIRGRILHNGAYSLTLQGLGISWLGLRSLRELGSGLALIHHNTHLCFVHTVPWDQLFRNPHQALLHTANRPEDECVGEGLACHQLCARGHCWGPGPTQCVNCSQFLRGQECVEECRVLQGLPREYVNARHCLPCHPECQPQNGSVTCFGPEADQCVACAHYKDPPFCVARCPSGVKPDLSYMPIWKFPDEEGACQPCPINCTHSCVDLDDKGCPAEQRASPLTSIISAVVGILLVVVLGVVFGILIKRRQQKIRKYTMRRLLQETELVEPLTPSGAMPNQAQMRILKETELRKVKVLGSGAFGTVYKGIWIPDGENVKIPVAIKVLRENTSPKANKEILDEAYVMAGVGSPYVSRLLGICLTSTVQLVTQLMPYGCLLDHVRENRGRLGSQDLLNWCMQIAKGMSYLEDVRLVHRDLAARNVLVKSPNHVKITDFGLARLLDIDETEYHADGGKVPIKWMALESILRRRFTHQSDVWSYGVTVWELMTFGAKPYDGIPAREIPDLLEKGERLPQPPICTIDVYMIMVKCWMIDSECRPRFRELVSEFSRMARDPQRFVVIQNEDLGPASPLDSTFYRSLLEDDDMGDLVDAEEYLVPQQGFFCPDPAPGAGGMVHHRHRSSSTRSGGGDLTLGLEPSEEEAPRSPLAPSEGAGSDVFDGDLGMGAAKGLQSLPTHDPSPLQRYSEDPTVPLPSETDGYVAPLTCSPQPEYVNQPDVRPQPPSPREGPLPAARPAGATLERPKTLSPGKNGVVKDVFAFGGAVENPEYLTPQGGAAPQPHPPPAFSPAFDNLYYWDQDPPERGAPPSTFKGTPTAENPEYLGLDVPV
# [4] = 3-day treatment, CellTiterGlo, read-out: Cell growth inhibition activity, EGFR WT
# [5] = 3-day treatment, CellTiterGlo, read-out: Cell growth inhibition activity, HER2 WT
# [6] = cell growth inhibition, 80 ng/mL EGF, 3 days treatment, read-out: EGFR WT IC50
# [7] = cell growth inhibition, 3 days treatment, read-out: HER2 - YVMA IC50
# [8] = cell growth inhibition, 3 days treatment, read-out: HER2 WT IC50
# Chain of BaF3_EGFRWT cells (P00533 whole entry, change not shown): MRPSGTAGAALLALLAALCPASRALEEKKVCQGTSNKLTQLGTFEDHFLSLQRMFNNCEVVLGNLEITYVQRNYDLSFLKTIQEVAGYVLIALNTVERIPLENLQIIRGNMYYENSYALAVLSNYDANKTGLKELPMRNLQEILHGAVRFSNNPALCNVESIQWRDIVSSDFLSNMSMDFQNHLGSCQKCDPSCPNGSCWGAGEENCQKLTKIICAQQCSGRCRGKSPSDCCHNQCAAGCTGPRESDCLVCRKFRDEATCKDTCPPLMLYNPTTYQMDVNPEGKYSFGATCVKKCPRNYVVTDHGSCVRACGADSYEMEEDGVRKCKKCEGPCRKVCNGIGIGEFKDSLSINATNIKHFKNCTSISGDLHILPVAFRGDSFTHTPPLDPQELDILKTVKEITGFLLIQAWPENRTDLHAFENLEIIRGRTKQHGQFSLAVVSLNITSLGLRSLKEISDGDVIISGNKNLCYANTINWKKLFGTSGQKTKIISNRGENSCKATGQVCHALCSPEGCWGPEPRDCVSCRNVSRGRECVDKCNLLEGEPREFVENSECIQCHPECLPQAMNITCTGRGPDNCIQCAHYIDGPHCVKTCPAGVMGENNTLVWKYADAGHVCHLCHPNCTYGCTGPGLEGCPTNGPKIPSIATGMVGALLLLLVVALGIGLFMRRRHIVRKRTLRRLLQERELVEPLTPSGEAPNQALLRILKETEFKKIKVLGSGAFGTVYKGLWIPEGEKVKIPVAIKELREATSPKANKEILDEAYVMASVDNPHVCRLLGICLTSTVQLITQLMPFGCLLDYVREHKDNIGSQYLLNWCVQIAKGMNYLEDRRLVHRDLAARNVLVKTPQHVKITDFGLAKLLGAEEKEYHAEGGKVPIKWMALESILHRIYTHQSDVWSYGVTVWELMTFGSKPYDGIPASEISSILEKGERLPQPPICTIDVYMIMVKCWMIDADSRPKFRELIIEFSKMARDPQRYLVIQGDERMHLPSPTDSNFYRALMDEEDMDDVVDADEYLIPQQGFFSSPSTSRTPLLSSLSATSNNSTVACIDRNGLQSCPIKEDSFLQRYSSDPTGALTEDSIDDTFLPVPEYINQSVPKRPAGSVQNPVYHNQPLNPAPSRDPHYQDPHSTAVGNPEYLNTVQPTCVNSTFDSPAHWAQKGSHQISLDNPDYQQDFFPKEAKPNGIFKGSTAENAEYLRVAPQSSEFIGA
Structure (SMILES),"GI50 [1, 4] [µM]","GI50 [3, 5] [µM]","GI50 [1, 6] [µM]",also measured
"COC1CCN(C/C=C/C(=O)N2CCC(c3ccn4ncnc(Nc5ccc(Oc6ccc7c(c6)ncn7C)c(C)c5)c34)CC2)C1 (racemic) [Example 106, (E)-4-(3-methoxypyrrolidin-1-yl)-1-(4-(4-((3-methyl-4-((1-methyl-1H-benzo[d]imidazol-5-yl)oxy)phenyl)amino)pyrrolo[2,1-f][1,2,4]triazin-5-yl)piperidin-1-yl)but-2-en-1-one]",1.5 to 5,,,
"C=CC(=O)N1C[C@H]2C[C@@H]1C[C@H]2c1ccn2ncnc(Nc3ccc(Oc4ccn5ncnc5c4)c(C)c3)c12 (relative stereo) [Example 104, Rel-1-1(1S,4S,5R)-5-{4-[(3-methyl-4-{[1,2,4]triazolo[1,5-a]pyridin-7-yloxy}phenyl)amino]pyrrolo[2,1-f][1,2,4]triazin-5-yl}-2-azabicyclo[2.2.1]heptan-2-yl]prop-2-en-1-one]",1.5 to 5,0.5 to 1.5,,"GI50 ([2]; 3-day treatment, CellTiterGlo, read-out: Cell growth inhibition activity, HER2 - YVMA): 1.5 to 5 µM"
"Cc1cc(Nc2ncnn3ccc(C4CCN(C(=O)/C=C/CN(C)C)C4)c23)ccc1Oc1ccn2ncnc2c1 (single isomer, unassigned) [Examples 99 and 100, first eluting isomer, (E)-1-(3-(4-((4-([1,2,4]triazolo[1,5-a]pyridin-7-yloxy)-3-methylphenyl)amino)pyrrolo[2,1-f][1,2,4]triazin-5-yl)pyrrolidin-1-yl)-4-(dimethylamino)but-2-en-1-one]",,,1.5 to 5,"GI50 [2, 7]: < 0.2 µM; GI50 [3, 8]: < 0.2 µM"
"Cc1cc(Nc2ncnn3ccc(C4CCN(C(=O)/C=C/CN(C)C)C4)c23)ccc1Oc1ccn2ncnc2c1 (single isomer, unassigned) [Examples 99 and 100, second eluting isomer, (E)-1-(3-(4-((4-([1,2,4]triazolo[1,5-a]pyridin-7-yloxy)-3-methylphenyl)amino)pyrrolo[2,1-f][1,2,4]triazin-5-yl)pyrrolidin-1-yl)-4-(dimethylamino)but-2-en-1-one]",,,1.5 to 5,"GI50 [2, 7]: 0.5 to 1.5 µM; GI50 [3, 8]: < 0.2 µM"
"C=CC(=O)N1CCCC(c2ccn3ncnc(Nc4ccc(Oc5ccn6ncnc6c5)c(C)c4)c23)CC1 (single isomer, unassigned) [Examples 111 and 112, second eluting isomer, 1-(4-(4-((4-([1,2,4]triazolo[1,5-a]pyridin-7-yloxy)-3-methylphenyl)amino)pyrrolo-[2,1-f][1,2,4]triazin-5-yl)azepan-1-yl)prop-2-en-1-one]",,,1.5 to 5,
"Cc1cc(Nc2ncnn3ccc(C4CCN(C(=O)/C=C/CN(C)C)CC4)c23)ccc1Oc1ccn2ncnc2c1 [Example 21, (E)-1-(4-(4-((4-([1,2,4]triazolo[1,5-a]pyridin-7-yloxy)-3-methylphenyl)amino)pyrrolo[2,1-f][1,2,4]triazin-5-yl)piperidin-1-yl)-4-(dimethylamino)but-2-en-1-one]",1.5 to 5,,,
"COC1CN(C/C=C/C(=O)N2CC(c3ccn4ncnc(Nc5ccc(Oc6ccn7ncnc7c6)c(C)c5)c34)C2)C1 [Example 39, (E)-1-(3-(4-((4-([1,2,4]triazolo[1,5-a]pyridin-7-yloxy)-3-methylphenyl)amino)pyrrolo[2,1-f][1,2,4]triazin-5-yl)azetidin-1-yl)-4-(3-methoxyazetidin-1-yl)but-2-en-1-one]",1.5 to 5,< 0.2,,
"Cc1cc(Nc2ncnn3ccc(C(=O)NCCCN(C)C)c23)ccc1Oc1ccn2ncnc2c1 [Example 179, 4-((4-([1,2,4]triazolo[1,5-a]pyridin-7-yloxy)-3-methylphenyl)amino)-N-(3-(dimethylamino)-propyl)pyrrolo[2,1-f][1,2,4]triazine-5-carboxamide hydrochloride]",> 5,0.2 to 0.5,,
